Test results: ChEMBL document CHEMBL1201862, “PubChem BioAssay data set” (2004)
Calls of active or inactive are those of the source.

What was measured:
[1] = target: Peroxisome proliferator-activated receptor gamma/Nuclear receptor coactivator 2 (Homo sapiens, UniProt P37231); type: functional;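 note: agonist potency for raising coactivator recruitment to the receptor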
[2] = target: Peroxisome proliferator-activated receptor gamma/Nuclear receptor coactivator 1 (Homo sapiens, UniProt P37231); type: functional;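 note: agonist potency as compounds enhance coactivator SRC-1 recruitment to PPARgamma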
[3] = target: Peroxisome proliferator-activated receptor gamma/Nuclear receptor coactivator 3 (Homo sapiens, UniProt P37231); type: functional;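 note: agonist potency for raising coactivator recruitment to the receptor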
[4] = microbe, parasite or virus in culture; type: functional; conditions: Mycobacterium tuberculosis
[5] = A High Throughput Confirmatory Assay used to Identify Novel Compounds that Inhibit Mycobacterium Tuberculosis in the absence of Glycerol.; type: functional
[6] = target: T1, Bcl-2-related protein A1 (Mus musculus, UniProt Q07440); experiment: Bfl-1 binding inhibitors, SAR follow-up, biochemical, fluorescence polarization (AID 1070)
T1 sequence (Q07440 whole entry): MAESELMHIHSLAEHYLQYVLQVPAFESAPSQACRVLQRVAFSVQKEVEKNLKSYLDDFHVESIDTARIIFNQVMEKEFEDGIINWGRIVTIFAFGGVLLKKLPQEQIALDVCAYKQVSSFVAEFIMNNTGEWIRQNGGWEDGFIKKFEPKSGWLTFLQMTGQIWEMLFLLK

[7] = target: Glyceraldehyde-3-phosphate dehydrogenase (Homo sapiens, UniProt P04406)
[8] = target: T1, Bcl-2-related protein A1; experiment: small-molecule antagonists of Bfl-1/BH3 interaction – biochemical, TR-FRET, mouse Bfl-1, confirmation (AID 621);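 note: TR-FRET binding of GST-Bfl-1 to FITC-labelled Bid peptide via terbium antibody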
[9] = M. tuberculosis H37Rv growth inhibitors, H37Rv strain (AID 1626); type: functional
[10] = M. tuberculosis growth inhibition, HTS (AID 449762); type: functional
[11] = A Cell Based Assay for the Identification of Probe candidate Compounds with Anti- Venezuelan Equine Encephalitis virus. [Related pubchem assays: 2409, 2419, 1621, 2238, 2405, 2024, 2065, 2402, 2414, 1635, 1650, 2244 ]; type: functional
[12] = system: Vero; experiment: Vero 76 cell viability after compound exposure – Vero 76 cells, synthesized analogs, cytotoxicity control for West Nile virus antiviral project, SAR follow-up (AID 2414); type: functional; conditions: Chlorocebus sabaeus
[13] = system: Vero; experiment: Vero cell viability after compound exposure – synthesized analogs, set II, cytotoxicity control for West Nile virus antiviral project, SAR follow-up (AID 2402); type: functional; conditions: Chlorocebus sabaeus
[14] = target: T1, Bcl-2-related protein A1; experiment: displacement of Bid BH3 peptide from Bfl-1 – biochemical, fluorescence polarization, FITC-Bid, mouse, primary screen (AID 432)

Glyceraldehyde-3-phosphate dehydrogenase, sequence (P04406 whole entry): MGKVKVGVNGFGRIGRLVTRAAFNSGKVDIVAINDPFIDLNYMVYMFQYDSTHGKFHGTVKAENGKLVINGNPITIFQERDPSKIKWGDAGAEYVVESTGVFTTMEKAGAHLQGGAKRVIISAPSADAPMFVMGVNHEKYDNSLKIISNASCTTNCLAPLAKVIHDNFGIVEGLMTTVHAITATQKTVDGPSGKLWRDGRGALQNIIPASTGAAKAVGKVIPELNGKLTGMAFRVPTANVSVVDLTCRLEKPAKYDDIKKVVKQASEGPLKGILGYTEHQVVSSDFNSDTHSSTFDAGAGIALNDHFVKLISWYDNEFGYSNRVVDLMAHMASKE
Peroxisome proliferator-activated receptor gamma/Nuclear receptor coactivator 2, sequence (P37231 whole entry): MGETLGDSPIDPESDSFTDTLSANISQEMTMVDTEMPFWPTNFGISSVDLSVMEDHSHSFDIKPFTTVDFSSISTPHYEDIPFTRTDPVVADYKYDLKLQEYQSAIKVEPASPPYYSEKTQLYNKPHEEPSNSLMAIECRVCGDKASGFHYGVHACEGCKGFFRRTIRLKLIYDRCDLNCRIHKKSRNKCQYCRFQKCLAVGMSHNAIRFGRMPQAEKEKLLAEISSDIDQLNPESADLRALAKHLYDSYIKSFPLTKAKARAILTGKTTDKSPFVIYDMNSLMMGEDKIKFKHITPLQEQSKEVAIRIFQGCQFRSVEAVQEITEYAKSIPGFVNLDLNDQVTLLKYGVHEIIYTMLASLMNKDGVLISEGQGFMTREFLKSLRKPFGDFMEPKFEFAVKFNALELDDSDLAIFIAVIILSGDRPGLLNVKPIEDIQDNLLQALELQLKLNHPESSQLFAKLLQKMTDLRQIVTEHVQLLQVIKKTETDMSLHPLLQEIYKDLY
Peroxisome proliferator-activated receptor gamma/Nuclear receptor coactivator 2, sequence (Q15596 whole entry, further chain): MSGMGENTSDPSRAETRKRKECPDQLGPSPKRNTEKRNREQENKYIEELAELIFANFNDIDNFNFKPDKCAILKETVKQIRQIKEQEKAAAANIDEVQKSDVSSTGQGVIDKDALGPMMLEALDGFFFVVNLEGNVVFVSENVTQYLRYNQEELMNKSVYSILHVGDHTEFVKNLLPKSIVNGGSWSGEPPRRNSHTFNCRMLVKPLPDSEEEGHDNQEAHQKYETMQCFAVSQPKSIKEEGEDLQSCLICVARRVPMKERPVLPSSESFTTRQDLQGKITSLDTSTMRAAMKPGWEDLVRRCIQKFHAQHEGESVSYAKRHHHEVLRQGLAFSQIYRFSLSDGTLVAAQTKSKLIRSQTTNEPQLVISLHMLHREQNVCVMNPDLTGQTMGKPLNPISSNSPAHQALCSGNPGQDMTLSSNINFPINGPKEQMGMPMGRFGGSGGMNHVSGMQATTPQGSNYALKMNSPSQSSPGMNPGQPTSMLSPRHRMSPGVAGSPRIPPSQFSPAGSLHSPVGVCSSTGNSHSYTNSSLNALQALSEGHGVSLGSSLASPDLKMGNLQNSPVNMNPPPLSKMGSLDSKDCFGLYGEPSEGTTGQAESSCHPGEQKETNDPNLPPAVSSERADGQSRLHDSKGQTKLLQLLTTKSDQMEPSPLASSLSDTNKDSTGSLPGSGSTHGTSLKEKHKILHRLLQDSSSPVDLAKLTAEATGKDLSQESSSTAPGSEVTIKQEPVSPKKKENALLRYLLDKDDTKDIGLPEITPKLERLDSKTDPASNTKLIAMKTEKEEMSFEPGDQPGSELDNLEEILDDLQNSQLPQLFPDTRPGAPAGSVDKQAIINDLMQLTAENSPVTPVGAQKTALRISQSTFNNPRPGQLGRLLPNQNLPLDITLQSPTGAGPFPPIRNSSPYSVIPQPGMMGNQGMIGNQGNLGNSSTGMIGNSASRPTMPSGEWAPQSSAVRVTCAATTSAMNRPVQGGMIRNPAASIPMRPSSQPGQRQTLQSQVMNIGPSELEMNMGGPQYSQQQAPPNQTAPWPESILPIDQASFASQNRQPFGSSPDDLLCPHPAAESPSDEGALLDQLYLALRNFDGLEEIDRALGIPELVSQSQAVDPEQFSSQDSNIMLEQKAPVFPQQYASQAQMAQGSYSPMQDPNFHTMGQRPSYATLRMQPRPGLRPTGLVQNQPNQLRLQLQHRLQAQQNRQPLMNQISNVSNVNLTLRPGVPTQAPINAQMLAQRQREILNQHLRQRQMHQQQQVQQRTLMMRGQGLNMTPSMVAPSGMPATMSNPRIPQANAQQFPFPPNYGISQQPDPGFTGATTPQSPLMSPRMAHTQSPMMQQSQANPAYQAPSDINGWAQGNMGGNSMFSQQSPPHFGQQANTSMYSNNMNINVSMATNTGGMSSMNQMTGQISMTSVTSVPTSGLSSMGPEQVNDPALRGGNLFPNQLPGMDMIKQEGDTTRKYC
Peroxisome proliferator-activated receptor gamma/Nuclear receptor coactivator 3, sequence (P37231 whole entry): as the sequence (P37231 whole entry) above
Peroxisome proliferator-activated receptor gamma/Nuclear receptor coactivator 3, sequence (Q9Y6Q9 whole entry, further chain): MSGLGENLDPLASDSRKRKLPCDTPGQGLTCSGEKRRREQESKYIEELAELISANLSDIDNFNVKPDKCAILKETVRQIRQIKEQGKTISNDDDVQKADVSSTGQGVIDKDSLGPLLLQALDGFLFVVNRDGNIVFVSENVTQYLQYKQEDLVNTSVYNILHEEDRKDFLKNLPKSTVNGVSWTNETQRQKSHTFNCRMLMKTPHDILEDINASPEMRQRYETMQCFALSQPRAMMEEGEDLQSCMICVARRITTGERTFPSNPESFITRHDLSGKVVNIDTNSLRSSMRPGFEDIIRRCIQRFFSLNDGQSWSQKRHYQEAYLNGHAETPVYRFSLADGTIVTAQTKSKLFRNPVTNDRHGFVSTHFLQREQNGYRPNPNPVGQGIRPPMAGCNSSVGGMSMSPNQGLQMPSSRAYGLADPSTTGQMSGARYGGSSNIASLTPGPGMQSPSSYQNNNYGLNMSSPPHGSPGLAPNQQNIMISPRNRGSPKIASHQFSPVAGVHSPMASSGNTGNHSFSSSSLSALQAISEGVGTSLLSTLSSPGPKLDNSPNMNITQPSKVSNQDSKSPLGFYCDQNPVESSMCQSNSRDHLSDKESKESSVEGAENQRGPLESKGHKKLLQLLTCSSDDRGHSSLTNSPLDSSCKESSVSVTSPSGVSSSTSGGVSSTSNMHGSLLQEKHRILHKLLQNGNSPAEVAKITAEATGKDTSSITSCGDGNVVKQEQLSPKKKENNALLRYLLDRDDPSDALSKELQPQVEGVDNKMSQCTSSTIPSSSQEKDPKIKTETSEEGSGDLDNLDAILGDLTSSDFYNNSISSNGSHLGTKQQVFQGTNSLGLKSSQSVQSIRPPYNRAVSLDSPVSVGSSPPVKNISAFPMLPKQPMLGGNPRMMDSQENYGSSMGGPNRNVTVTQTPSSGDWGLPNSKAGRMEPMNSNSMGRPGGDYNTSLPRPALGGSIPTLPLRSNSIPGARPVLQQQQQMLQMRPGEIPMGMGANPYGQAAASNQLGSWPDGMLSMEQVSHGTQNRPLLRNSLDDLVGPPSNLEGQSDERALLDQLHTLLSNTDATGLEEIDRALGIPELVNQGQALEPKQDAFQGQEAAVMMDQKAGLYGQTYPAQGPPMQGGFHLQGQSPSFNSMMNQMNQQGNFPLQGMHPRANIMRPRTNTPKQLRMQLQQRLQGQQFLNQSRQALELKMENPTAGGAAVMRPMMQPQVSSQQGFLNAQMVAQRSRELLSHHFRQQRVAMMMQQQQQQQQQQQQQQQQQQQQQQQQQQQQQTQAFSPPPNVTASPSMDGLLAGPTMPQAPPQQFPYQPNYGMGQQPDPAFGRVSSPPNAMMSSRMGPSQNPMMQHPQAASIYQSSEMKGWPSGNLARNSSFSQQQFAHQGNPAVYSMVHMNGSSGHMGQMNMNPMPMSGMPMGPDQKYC

SMILES: O=C(COc1ccccc1-c1ccccc1)NCc1ccco1
- EC50 [1]: > 79.4 µM (not active)
- EC50 [2]: > 79.4 µM (not active)
- EC50 [3]: > 79.4 µM (not active)

SMILES: Cc1ccc(-c2noc(=O)n2CC(=O)c2ccc(Cl)cc2)cc1
- CC50 [4]: > 40 µM (active)
- IC50 [5]: > 50 µM (active)

SMILES: O=C1C(Cl)=C(Nc2ccc(F)cc2)C(=O)N1c1ccc(Cl)c(Cl)c1
- IC50 [6]: > 100 µM (not active)
- IC50 [7]: > 100 µM (not active)
- IC50 [8]: 96.5 µM (active)

SMILES: O=C(CSC1=NCCS1)Nc1ccc2ccccc2c1
- IC50 [9]: > 100 µM (active)

SMILES: CN1CCN(c2ccc(C(=O)c3cn(-c4ccc(F)c(Cl)c4)nn3)cc2)CC1
- IC50 [10]: > 100 µM (active)
- CC50 [4]: 15 µM (active)

SMILES: COc1cccc2c(=O)n(-c3ccccc3)c(SCC(=O)Nc3ccc4c(c3)CCC4)nc12
- IC50 [11]: < 0.26 µM (active)
- CC50 [12]: < 0.26 µM (active)
- CC50 [13]: > 200 µM (active)

SMILES: C1=C(c2ccc(-c3ccccc3)cc2)Nc2ncnn2C1c1ccco1 (stereo unspecified)
- IC50 [14]: > 100 µM (not active)
- IC50 [8]: > 100 µM (not active)
